In PubChem BioAssay AID292 (DTP/NCI, 2004):
“And” between values parts separate entries of the source, which are not always exact repeats. Identical values can stand only once. Inconclusive results and toxic doses are left out.

System: B6C3F1 mice, ip Sarcoma M5076, median survival T/C
Assay: NCI In Vivo Anticancer Drug Screen. Data for tumor model Sarcoma M5076 (intraperitoneal) in B6C3F1 mice
Details: endpoint: median survival time, higher = longer survival
In short: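 Mice carrying the transplanted tumour received compound treatment. Survival was recorded, and each value is the treated-group measurement divided by that of the vehicle-dosed control group.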

[1] = dose: 50.0 mg/kg/injection, schedule: Q04DX004 (ip), vehicle: saline with Tween-80
[2] = dose: 100.0 mg/kg/injection, schedule: Q04DX004 (ip), vehicle: saline with Tween-80
[3] = dose: 200.0 mg/kg/injection, schedule: Q04DX004 (ip), vehicle: saline with Tween-80
[4] = dose: 400.0 mg/kg/injection, schedule: Q04DX004 (ip), vehicle: saline with Tween-80
[5] = dose: 25.0 mg/kg/injection, schedule: Q04DX004 (ip), vehicle: saline with Tween-80

CO[C@H](/C(C)=C/C=C/C(C)=C/c1coc(C)n1)[C@H](C)[C@H]1C[C@@H](O)[C@@]2(C)O[C@H]2/C=C/[C@@H](C)[C@@H]2C[C@@H](CC(=O)O2)C[C@H]2O[C@@H]2C(=O)O1
T/C (dose: 0.06 mg/kg/injection, schedule: Q04DX004 (ip), vehicle: other): 110 % of control | T/C (dose: 0.09 mg/kg/injection, schedule: Q04DX004 (ip), vehicle: Klucel (hydroxypropylcellulose) (HPC)): 116 % of control | T/C (dose: 0.09 mg/kg/injection, schedule: Q04DX004 (ip), vehicle: other): 108 % of control and 113 % of control | T/C (dose: 0.12 mg/kg/injection, schedule: Q04DX004 (ip), vehicle: Klucel (hydroxypropylcellulose) (HPC)): 118 % of control | T/C (dose: 0.13 mg/kg/injection, schedule: Q01DX005 (sc), vehicle: other): 109 % of control | T/C (dose: 0.13 mg/kg/injection, schedule: Q04DX004 (ip), vehicle: Klucel (hydroxypropylcellulose) (HPC)): 115 % of control and 121 % of control | T/C (dose: 0.13 mg/kg/injection, schedule: Q04DX004 (ip), vehicle: other): 110 % of control | T/C (dose: 0.13 mg/kg/injection, schedule: Q04DX004 (iv), vehicle: other): 112 % of control | T/C (dose: 0.2 mg/kg/injection, schedule: Q01DX001 (sc), vehicle: other): 102 % of control | T/C (dose: 0.2 mg/kg/injection, schedule: Q01DX005 (sc), vehicle: other): 114 % of control | T/C (dose: 0.2 mg/kg/injection, schedule: Q01DX013 (ip), vehicle: other): 162 % of control | T/C (dose: 0.2 mg/kg/injection, schedule: Q04DX004 (ip), vehicle: Klucel (hydroxypropylcellulose) (HPC)): 119 % of control | T/C (dose: 0.2 mg/kg/injection, schedule: Q04DX004 (ip), vehicle: other): 115 % of control and 121 % of control and 122 % of control | T/C (dose: 0.2 mg/kg/injection, schedule: Q04DX004 (iv), vehicle: other): 110 % of control | T/C (dose: 0.25 mg/kg/injection, schedule: Q04DX004 (ip), vehicle: Klucel (hydroxypropylcellulose) (HPC)): 118 % of control | T/C (dose: 0.3 mg/kg/injection, schedule: Q01DX001 (sc), vehicle: other): 105 % of control | T/C (dose: 0.3 mg/kg/injection, schedule: Q01DX005 (sc), vehicle: other): 115 % of control | T/C (dose: 0.3 mg/kg/injection, schedule: Q01DX013 (ip), vehicle: other): 163 % of control | T/C (dose: 0.3 mg/kg/injection, schedule: Q04DX004 (ip), vehicle: Klucel (hydroxypropylcellulose) (HPC)): 123 % of control | T/C (dose: 0.3 mg/kg/injection, schedule: Q04DX004 (ip), vehicle: other): 123 % of control | T/C (dose: 0.3 mg/kg/injection, schedule: Q04DX004 (iv), vehicle: other): 117 % of control | T/C (dose: 0.44 mg/kg/injection, schedule: Q04DX004 (iv), vehicle: other): 122 % of control | T/C (dose: 0.45 mg/kg/injection, schedule: Q01DX001 (sc), vehicle: other): 109 % of control | T/C (dose: 0.67 mg/kg/injection, schedule: Q01DX001 (sc), vehicle: other): 99 % of control | T/C (dose: 0.67 mg/kg/injection, schedule: Q04DX004 (ip), vehicle: Klucel (hydroxypropylcellulose) (HPC)): 150 % of control | T/C (dose: 1.0 mg/kg/injection, schedule: Q01DX001 (sc), vehicle: other): 104 % of control | T/C (dose: 1.0 mg/kg/injection, schedule: Q04DX004 (ip), vehicle: other): 169 % of control | T/C (dose: 1.5 mg/kg/injection, schedule: Q01DX001 (sc), vehicle: other): 110 % of control | T/C (dose: 1.5 mg/kg/injection, schedule: Q04DX004 (ip), vehicle: Klucel (hydroxypropylcellulose) (HPC)): 161 % of control | T/C (dose: 0.67 micrograms per hour, schedule: Q#X X024 (sc), vehicle: other): 122 % of control | T/C (dose: 0.67 micrograms per hour, schedule: Q#X X072 (sc), vehicle: other): 152 % of control | T/C (dose: 1.0 micrograms per hour, schedule: Q#X X072 (sc), vehicle: other): 150 % of control | T/C (dose: 55.6 micrograms/kg/injection, schedule: Q03HX008 (sc), vehicle: other): 110 % of control | T/C (dose: 83.4 micrograms/kg/injection, schedule: Q03HX008 (sc), vehicle: other): 118 % of control | T/C (dose: 125.0 micrograms/kg/injection, schedule: Q03HX008 (sc), vehicle: other): 123 % of control | T/C (dose: 281.0 micrograms/kg/injection, schedule: Q03HX008 (sc), vehicle: other): 120 % of control

CC(=O)N1CCCN(C)/C1=N/[N+](=O)[O-]
T/C (dose: 37.5 mg/kg/injection, schedule: Q04DX004 (ip), vehicle: saline): 100 % of control | T/C (dose: 75.0 mg/kg/injection, schedule: Q04DX004 (ip), vehicle: saline): 104 % of control | T/C (dose: 150.0 mg/kg/injection, schedule: Q04DX004 (ip), vehicle: saline): 104 % of control | T/C (dose: 300.0 mg/kg/injection, schedule: Q04DX004 (ip), vehicle: saline): 100 % of control

c1nnc(NCNc2nncs2)s1
T/C (dose: 25.0 mg/kg/injection, schedule: Q04DX004 (ip), vehicle: suspension in saline): 113 % of control | T/C (dose: 50.0 mg/kg/injection, schedule: Q04DX004 (ip), vehicle: suspension in saline): 122 % of control | T/C (dose: 144.0 mg/kg/injection, schedule: Q04DX004 (ip), vehicle: suspension in saline): 154 % of control | T/C (dose: 200.0 mg/kg/injection, schedule: Q04DX004 (ip), vehicle: suspension in saline): 123 % of control | T/C (dose: 240.0 mg/kg/injection, schedule: Q04DX004 (ip), vehicle: suspension in saline): 164 % of control | T/C (dose: 400.0 mg/kg/injection, schedule: Q04DX004 (ip), vehicle: suspension in saline): 168 % of control and 177 % of control

CCNC(=O)OCc1cnc(C)c(OC(=O)NCC)c1COC(=O)NCC
T/C [1]: 89 % of control | T/C [2]: 90 % of control | T/C [3]: 87 % of control | T/C [4]: 86 % of control | T/C (dose: 800.0 mg/kg/injection, schedule: Q04DX004 (ip), vehicle: saline with Tween-80): 91 % of control

S=C(NCNC(=S)c1ccncc1)c1ccncc1
T/C [5]: 96 % of control | T/C [1]: 99 % of control | T/C [2]: 92 % of control | T/C [3]: 102 % of control | T/C [4]: 107 % of control

C=CC1(C)CC(=O)C2(O)C(C)(O1)C(OC(C)=O)C(O)C1C(C)(C)CCC(O)C12C (centres undefined)
T/C (dose: 2.0 mg/kg/injection, schedule: Q04DX004 (ip), vehicle: DMSO): 98 % of control | T/C (dose: 4.0 mg/kg/injection, schedule: Q04DX004 (ip), vehicle: DMSO): 104 % of control | T/C (dose: 8.0 mg/kg/injection, schedule: Q04DX004 (ip), vehicle: DMSO): 98 % of control | T/C (dose: 16.0 mg/kg/injection, schedule: Q04DX004 (ip), vehicle: DMSO): 96 % of control and 101 % of control | T/C (dose: 32.0 mg/kg/injection, schedule: Q04DX004 (ip), vehicle: DMSO): 95 % of control and 107 % of control

COCCCn1c(C(Cl)(Cl)Cl)nn2c(=O)c3ccccc3nc2c1=O
T/C [1]: 103 % of control | T/C [2]: 99 % of control | T/C [3]: 94 % of control | T/C [4]: 90 % of control

Nc1nc(=S)c2[nH]cnc2[nH]1
T/C (dose: 3.0 mg/kg/injection, schedule: Q01DX004 (ip), vehicle: Klucel (hydroxypropylcellulose) (HPC)): 163 % of control | T/C (dose: 6.0 mg/kg/injection, schedule: Q01DX004 (ip), vehicle: Klucel (hydroxypropylcellulose) (HPC)): 178 % of control | T/C (dose: 12.0 mg/kg/injection, schedule: Q01DX004 (ip), vehicle: Klucel (hydroxypropylcellulose) (HPC)): 182 % of control | T/C (dose: 24.0 mg/kg/injection, schedule: Q04DX004 (ip), vehicle: Klucel (hydroxypropylcellulose) (HPC)): 175 % of control

NC(=O)c1cc(Cl)nc2nc(Cl)nc(N)c12
T/C [5]: 100 % of control | T/C [1]: 97 % of control | T/C [2]: 99 % of control | T/C [3]: 96 % of control | T/C [4]: 93 % of control

CC(=O)OCc1cc(-c2nc3ccccc3[nH]c2=O)nn1-c1ccc(Cl)cc1
T/C (dose: 6.25 mg/kg/injection, schedule: Q04DX004 (ip), vehicle: distilled water + alcohol): 95 % of control | T/C (dose: 12.5 mg/kg/injection, schedule: Q04DX004 (ip), vehicle: distilled water + alcohol): 91 % of control | T/C (dose: 25.0 mg/kg/injection, schedule: Q04DX004 (ip), vehicle: distilled water + alcohol): 88 % of control and 91 % of control | T/C (dose: 200.0 mg/kg/injection, schedule: Q04DX004 (ip), vehicle: distilled water + alcohol): 97 % of control

C=C(OC)C(Nc1cc(OC)c(OC)cc1C(=O)OC1CC(O[C@@H]2C(=O)C(NC(=O)OC)=C3/C(=C\CSSSC)[C@]2(O)C#C/C=C\C#C[C@@H]3OC2OC(C)C(NOC3CC(O)C(SC)C(C)O3)C(O)C2OC2CC(OC)C(NCCC)CO2)OC(C)C1O)OC (some centres undefined)
T/C (dose: 0.32 micrograms/kg/injection, schedule: Q04DX004 (ip), vehicle: saline + alcohol): 152 % of control | T/C (dose: 1.28 micrograms/kg/injection, schedule: Q04DX004 (ip), vehicle: saline + alcohol): 156 % of control

Clc1ccc(CC(Cn2ccnc2)c2ccccc2Cl)cc1 (centres undefined)
T/C (dose: 15.63 mg/kg/injection, schedule: Q04DX004 (ip), vehicle: saline with Tween-80): 111 % of control | T/C (dose: 31.25 mg/kg/injection, schedule: Q04DX004 (ip), vehicle: saline with Tween-80): 102 % of control | T/C (dose: 62.5 mg/kg/injection, schedule: Q04DX004 (ip), vehicle: saline with Tween-80): 96 % of control | T/C (dose: 125.0 mg/kg/injection, schedule: Q04DX004 (ip), vehicle: saline with Tween-80): 87 % of control
